The values below come from patent publication US20100137313A1 (ASTRAZENECA AB, priority 2008, published 2010).

Sequence of S. pneumoniae Topoisomerase IV ATPase (ParE) (Q59961 whole entry): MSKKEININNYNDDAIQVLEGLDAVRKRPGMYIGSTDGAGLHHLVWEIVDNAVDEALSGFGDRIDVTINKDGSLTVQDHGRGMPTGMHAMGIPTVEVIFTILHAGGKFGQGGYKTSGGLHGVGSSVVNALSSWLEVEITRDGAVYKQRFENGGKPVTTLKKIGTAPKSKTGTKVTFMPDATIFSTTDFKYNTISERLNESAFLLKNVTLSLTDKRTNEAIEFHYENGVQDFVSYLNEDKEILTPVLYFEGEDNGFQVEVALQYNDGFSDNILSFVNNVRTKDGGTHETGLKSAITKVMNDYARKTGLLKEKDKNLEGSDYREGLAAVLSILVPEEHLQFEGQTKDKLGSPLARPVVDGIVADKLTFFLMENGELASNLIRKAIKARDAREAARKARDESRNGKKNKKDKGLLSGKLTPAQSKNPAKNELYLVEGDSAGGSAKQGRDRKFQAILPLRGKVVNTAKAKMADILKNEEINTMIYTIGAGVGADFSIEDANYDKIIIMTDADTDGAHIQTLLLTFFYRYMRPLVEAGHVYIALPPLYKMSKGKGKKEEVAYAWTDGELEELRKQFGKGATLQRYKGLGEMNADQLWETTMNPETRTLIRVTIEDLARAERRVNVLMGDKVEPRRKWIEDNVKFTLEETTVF

The assay addresses S. pneumoniae Topoisomerase IV ATPase (ParE) (Streptococcus pneumoniae serotype 4, UniProt Q59961). As to the kind of experiment: S. pneumoniae Topoisomerase IV ATPase inhibition. Type of assay: biochemical. Conditions: values marked * are an average of two or more data points, read-out: % Inh (13 μM) of S. pneumoniae Topoisomerase IV ATPase. In short, it runs like this: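 Phosphate-release ATPase assay: 1.25 nM ParE, 160 μM ATP, DNA-stimulated. Quench with malachite green/molybdate in 1 M HCl, read 650 nm; IC50 from 10-point dose series.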
`CONC(=O)/C=C/c1cccc(-c2cnc(Nc3ccc(F)c(Cl)c3)nc2N2CCOCC2)c1` [Example 376, (E)-3-(3-(2-(3-chloro-4-fluorophenylamino)-4-morpholinopyrimidin-5-yl)phenyl)-N-methoxyacrylamide]: the inhibition at 13 µM turned out to be 87.2%.
The result for `CC(=O)NCCCNc1nc(Nc2ccc(F)c(Cl)c2)ncc1-c1cncnc1` [Example 377, N-(3-(2-(3-chloro-4-fluorophenylamino)-5,5′-bipyrimidin-4-ylamino)propyl)acetamide] reads 78.9%; that for `CCOC(=O)c1cncc(-c2cnc(Nc3cc(OC)cc(-n4cnnn4)c3)nc2N2CCOCC2)c1` [Example 380, 5-[2-(3-Methoxy-5-tetrazol-1-yl-phenylamino)-4-morpholin-4-yl-pyrimidin-5-yl]-nicotinic acid ethyl ester], 37%; that for `O=C(O)c1cncc(-c2cnc(Nc3cc(F)cc(F)c3)nc2N2CCOCC2)c1` [Example 388, 5-[2-(3,5-Difluoro-phenylamino)-4-morpholin-4-yl-pyrimidin-5-yl]nicotinic acid], 72%.
The figure for `Cc1cc(C)cc(Nc2ncc(-c3cncc(C(=O)O)c3)c(N3CCOCC3)n2)c1` [Example 389, 5-[2-(3,5-Dimethyl-phenylamino)-4-morpholin-4-yl-pyrimidin-5-yl]-nicotinic acid] is 85%; for `N#Cc1cc(Cl)cc(Nc2ncc(-c3cncc(C(=O)O)c3)c(N3CCOCC3)n2)c1` [Example 392, 5-[2-(3-Chloro-5-cyano-phenylamino)-4-morpholin-4-yl-pyrimidin-5-yl]-nicotinic acid] it is 74%; for `O=C(O)c1cccc(-c2cnc(Nc3cc(F)cc(Cl)c3)nc2N2CCOCC2)n1` [Example 393, 6-[2-(3-Chloro-5-fluoro-phenylamino)-4-morpholin-4-yl-pyrimidin-5-yl]-pyridine-2-carboxylic acid] it is 82%.
The result for `COc1cc(F)cc(Nc2ncc(-c3cncc(C(=O)O)c3)c(N3CCOCC3)n2)c1` [Example 394, 5-[2-(3-Fluoro-5-methoxy-phenylamino)-4-morpholino-4-yl-pyrimidin-5-yl]-nicotinic acid] reads 94%; that for `COc1c(F)cc(Nc2ncc(-c3cccc(/C=C/C(=O)O)c3)c(N3CCOCC3)n2)cc1F` [Example 403, (E)-3-{3-[2-(3,5-Difluoro-4-methoxy-phenylamino)-4-morpholin-4-yl-pyrimidin-5-yl]-phenyl}-acrylic acid], 30%.
For the compound `O=C(O)/C=C/c1cccc(-c2cnc(Nc3cc(F)cc(F)c3)nc2N2CCOCC2)c1` [Example 404, (E)-3-{3-[2-(3,5-Difluoro-phenylamino)-4-morpholin-4-yl-pyrimidin-5-yl]-phenyl}-acrylic acid], the inhibition at 13 µM amounted to 81%.
Turning to `Cc1cc(C)cc(Nc2ncc(-c3cccc(/C=C/C(=O)O)c3)c(N3CCOCC3)n2)c1` [Example 405, (E)-3-{3-[2-(3,5-Dimethyl-phenylamino)-4-morpholin-4-yl-pyrimidin-5-yl]-phenyl}-acrylic acid], the inhibition at 13 µM was determined as 85%.
As to `N#Cc1cc(F)cc(Nc2ncc(-c3cccc(/C=C/C(=O)O)c3)c(N3CCOCC3)n2)c1` [Example 407, (E)-3-{3-[2-(3-Cyano-5-fluoro-phenylamino)-4-morpholin-4-yl-pyrimidin-5-yl]-phenyl}-acrylic acid], the inhibition at 13 µM came out at 86%.
The result for `N#Cc1cc(Cl)cc(Nc2ncc(-c3cccc(/C=C/C(=O)O)c3)c(N3CCOCC3)n2)c1` [Example 408, (E)-3-{3-[2-(3-Chloro-5-cyano-phenylamino)-4-morpholin-4-yl-pyrimidin-5-yl]-phenyl}-acrylic acid] reads 100%; that for `O=C(O)/C=C/c1cccc(-c2cnc(Nc3cc(F)cc(Cl)c3)nc2N2CCOCC2)c1` [Example 409, (E)-3-{3-[2-(3-Chloro-5-fluoro-phenylamino)-4-morpholin-4-yl-pyrimidin-5-yl]-phenyl}-acrylic acid], 77%; that for `COc1cc(F)cc(Nc2ncc(-c3cccc(/C=C/C(=O)O)c3)c(N3CCOCC3)n2)c1` [Example 410, (E)-3-{3-[2-(3-Fluoro-5-methoxy-phenylamino)-4-morpholin-4-yl-pyrimidin-5-yl]-phenyl}-acrylic acid], 100%.
The figure for `O=C(O)c1cncc(-c2cnc(Nc3ccc(F)cc3)nc2N2CCOCC2)c1` [Example 435] is 51%; for `O=C(O)c1cncc(-c2cnc(Nc3ccc(F)c([N+](=O)[O-])c3)nc2N2CCOCC2)c1` [Example 436] it is 69%; for `O=C(O)c1cncc(-c2cnc(Nc3ccc(F)c(C(F)(F)F)c3)nc2N2CCOCC2)c1` [Example 437] it is 75%.
The result for `Cc1cc(Nc2ncc(-c3cncc(C(=O)O)c3)c(N3CCOCC3)n2)ccc1F` [Example 438] reads 81%; that for `COc1cccc(Nc2ncc(-c3cncc(C(=O)O)c3)c(N3CCOCC3)n2)c1` [Example 439], 62%.
Regarding `N#Cc1cc(Nc2ncc(-c3cncc(C(=O)O)c3)c(N3CCOCC3)n2)ccc1F` [Example 440], the inhibition at 13 µM was 85%.
The figure for `COc1cc(Nc2ncc(-c3cncc(C(=O)O)c3)c(N3CCOCC3)n2)ccc1F` [Example 441] is 74%; for `O=C(O)c1cncc(-c2cnc(Nc3ccc(F)c(Br)c3)nc2N2CCOCC2)c1` [Example 443] it is 85%.
The figure for `O=C(O)c1cncc(-c2cnc(Nc3ccc(F)c(S(=O)(=O)N4CCOCC4)c3)nc2N2CCOCC2)c1` [Example 444] is 7%; for `COc1cc(Nc2ncc(-c3cncc(C(=O)O)c3)c(N3CCOCC3)n2)cc(-n2nnnc2C)c1` [Example 445] it is 34%.
The figure for `O=C(O)/C=C/c1cccc(-c2cnc(Nc3ccc(F)cc3)nc2N2CCOCC2)c1` [Example 447] is 50%; for `O=C(O)/C=C/c1cccc(-c2cnc(Nc3ccc(F)c([N+](=O)[O-])c3)nc2N2CCOCC2)c1` [Example 448] it is 82%; for `Cc1cc(Nc2ncc(-c3cccc(/C=C/C(=O)O)c3)c(N3CCOCC3)n2)ccc1F` [Example 450] it is 86%.
For the compound `COc1cccc(Nc2ncc(-c3cccc(/C=C/C(=O)O)c3)c(N3CCOCC3)n2)c1` [Example 451], the inhibition at 13 µM is 70%.
As to `COc1cc(Nc2ncc(-c3cccc(/C=C/C(=O)O)c3)c(N3CCOCC3)n2)ccc1F` [Example 452], the inhibition at 13 µM was 76%.
For `COc1cc(Nc2ncc(-c3cccc(/C=C/C(=O)O)c3)c(N3CCOCC3)n2)cc([N+](=O)[O-])c1` [Example 453], the inhibition at 13 µM amounted to 92%.
The figure for `O=C(O)/C=C/c1cccc(-c2cnc(Nc3ccc(F)c(Br)c3)nc2N2CCOCC2)c1` [Example 454] is 92%; for `COCCOc1cccc(Nc2ncc(-c3cccc(/C=C/C(=O)O)c3)c(N3CCOCC3)n2)c1` [Example 457] it is 28%; for `O=C(O)c1coc2ccc(-c3cnc(Nc4ccc(F)c(Cl)c4)nc3N3CCOCC3)cc2c1=O` [Example 459, 6-(2-(3-chloro-4-fluorophenylamino)-4-morpholinopyrimidin-5-yl)-4-oxo-4H-chromene-3-carboxylic acid] it is 100%.
Turning to `COc1ncc(-c2cnc(Nc3ccc(F)c(Cl)c3)nc2NCCc2cccnc2)cn1` [Example 460, N^2-(3-chloro-4-fluorophenyl)-2′-methoxy-N^4-[2-(pyridin-3-yl)ethyl]-5,5′-bipyrimidine-2,4-diamine], the inhibition at 13 µM came to 100%.
The figure for `COc1ncc(-c2cnc(Nc3ccc(F)c(Cl)c3)nc2NCCc2ccncc2)cn1` [Example 461, N^2-(3-chloro-4-fluorophenyl)-2′-methoxy-N^4-[2-(pyridin-4-yl)ethyl]-5,5′-bipyrimidine-2,4-diamine] is 100%.
The figure for `COc1ncc(-c2cnc(Nc3ccc(F)c(Cl)c3)nc2NCCc2c[nH]cn2)cn1` [Example 462, N^2-(3-chloro-4-fluorophenyl)-N^4-[2-(1H-imidazol-4-yl)ethyl]-2′-methoxy-5,5′-bipyrimidine-2,4-diamine] is 85%; for `COc1ncc(-c2cnc(Nc3ccc(F)c(Cl)c3)nc2NCc2ccncc2C)cn1` [Example 463, N2-(3-chloro-4-fluorophenyl)-2′-methoxy-N4-((3-methylpyridin-4-yl)methyl)-5,5′-bipyrimidine-2,4-diamine] it is 67%.
The figure for `COc1cc(CNc2nc(Nc3ccc(F)c(Cl)c3)ncc2-c2cnc(OC)nc2)cc(OC)c1` [Example 464, N2-(3-chloro-4-fluorophenyl)-N4-(3,5-dimethoxybenzyl)-2′-methoxy-5,5′-bipyrimidin-2,4-diamine] is 36%; for `COc1ccc(CNc2nc(Nc3ccc(F)c(Cl)c3)ncc2-c2cnc(OC)nc2)cn1` [Example 465, N2-(3-chloro-4-fluorophenyl)-2′-methoxy-N4-((6-methoxypyridin-3-yl)methyl)-5,5′-bipyrimidine-2,4-diamine] it is 59%; for `COc1ncc(-c2cnc(Nc3ccc(F)c(Cl)c3)nc2NCC2CCN(C(=O)C3CC3)CC2)cn1` [Example 466, (4-((2-(3-chloro-4-fluorophenylamino)-2′-methoxy-5,5′-bipyrimidin-4-ylamino)methyl)piperidin-1-yl)(cyclopropyl)methanone] it is 78%.
In the case of `CCN1CC(CNc2nc(Nc3ccc(F)c(Cl)c3)ncc2-c2cnc(OC)nc2)CC1=O` (stereo not drawn) [Example 467, 4-((2-(3-chloro-4-fluorophenylamino)-2′-methoxy-5,5′-bipyrimidin-4-ylamino)methyl)-1-ethylpyrrolidin-2-one], the inhibition at 13 µM came out at 76%.
